Converted amounts (≈) assume the structure as drawn. Read-outs that look alike come from different tables or passages of the source.
Assays:
[1] = target: T1, PBP3 from Escherichia coli (K-12) (Escherichia coli, UniProt P0AD68); test: Bocillin-FL fluorescence polarization competition binding, E. coli PBP3
T1 construct: made in house
Method in brief: (§1)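 Purified PBP was preincubated with inhibitor (E. coli PBP3 1.5 μM, 30 min; P. aeruginosa PBP3 0.75 μM, A. baumannii PBP3 0.2 μM and PBP1a 1 μM, 15 min), then Bocillin-FL (0.1 μM; 0.05 μM for PBP1a) added and FP read up to 60 min. EC50 = 50% loss of bound probe.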

[2] = target: T2, PBP3 from Pseudomonas aeruginosa (PAO1) (Pseudomonas aeruginosa, UniProt G3XD46); test: Bocillin-FL fluorescence polarization competition binding, P. aeruginosa PBP3; conditions: Binding affinity to P. aeruginosa PBP3; fluorescence polarization competition binding assay using Bocillin-FL; read-out: P. aeruginosa PBP3 Potency
T2 construct: made in house
T2 sequence (G3XD46 whole entry): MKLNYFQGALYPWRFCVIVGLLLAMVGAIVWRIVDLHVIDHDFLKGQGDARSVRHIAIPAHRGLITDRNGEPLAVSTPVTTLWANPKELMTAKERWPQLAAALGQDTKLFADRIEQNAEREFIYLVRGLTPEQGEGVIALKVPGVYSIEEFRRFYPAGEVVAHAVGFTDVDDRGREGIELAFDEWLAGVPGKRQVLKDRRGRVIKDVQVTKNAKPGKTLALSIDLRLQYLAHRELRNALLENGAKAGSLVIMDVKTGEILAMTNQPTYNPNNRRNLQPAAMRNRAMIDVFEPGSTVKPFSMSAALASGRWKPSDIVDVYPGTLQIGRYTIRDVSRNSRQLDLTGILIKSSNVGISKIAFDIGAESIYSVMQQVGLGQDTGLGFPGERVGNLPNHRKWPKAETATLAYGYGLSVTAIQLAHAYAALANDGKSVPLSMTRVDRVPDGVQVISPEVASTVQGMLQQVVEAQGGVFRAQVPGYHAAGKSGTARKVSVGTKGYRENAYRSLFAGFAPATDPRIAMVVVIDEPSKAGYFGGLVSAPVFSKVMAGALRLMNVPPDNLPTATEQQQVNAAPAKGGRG
Method in brief: as §1

[3] = system: N. gonorrhoeae ATCC 49226; test: Liquid broth MIC in Fastidious broth; conditions: Neisseria gonorrhoeae
[4] = system: N. gonorrhoeae WHO G; test: Liquid broth MIC in Fastidious broth; conditions: Neisseria gonorrhoeae
[5] = system: N. gonorrhoeae WHO X; test: Liquid broth MIC in Fastidious broth; conditions: Neisseria gonorrhoeae
[6] = system: N. gonorrhoeae CDC-0197; test: Liquid broth MIC in Fastidious broth; conditions: Neisseria gonorrhoeae
[7] = system: P. aeruginosa ATCC 27853; test: microbe, parasite or virus in culture; type: cell-based; conditions: Pseudomonas aeruginosa, ATCC27853, read-out: Minimum inhibitory concentration, P. aeruginosa ATCC 27853
[8] = system: P. aeruginosa CDC-0054; test: microbe, parasite or virus in culture; type: cell-based; conditions: Pseudomonas aeruginosa, CDC0054, read-out: Minimum inhibitory concentration, P. aeruginosa CDC-0054
[9] = system: P. aeruginosa CDC-0090; test: microbe, parasite or virus in culture; type: cell-based; conditions: Pseudomonas aeruginosa, CDC0090, read-out: Minimum inhibitory concentration, P. aeruginosa CDC-0090
[10] = system: P. aeruginosa CDC-0095; test: microbe, parasite or virus in culture; type: cell-based; conditions: Pseudomonas aeruginosa, CDC0095, read-out: Minimum inhibitory concentration, P. aeruginosa CDC-0095
[11] = system: A. baumannii CDC-0033; test: microbe, parasite or virus in culture; type: cell-based; conditions: Acinetobacter baumannii, CDC0033, read-out: MIC, A. baumannii CDC-0033
[12] = system: A. baumannii CDC-0083; test: microbe, parasite or virus in culture; type: cell-based; conditions: Acinetobacter baumannii, CDC0083, read-out: MIC, A. baumannii CDC-0083
[13] = system: B. thailandensis ATCC 700388; test: microbe, parasite or virus in culture; type: cell-based; conditions: Burkholderia thailandensis, ATCC700388, read-out: Minimum inhibitory concentration (MIC), B. thailandensis ATCC 700388
[14] = system: B. humptydooensis ATCC BAA-2767; test: microbe, parasite or virus in culture; type: cell-based; conditions: Burkholderia humptydooensis, ATCCBAA2767, read-out: Minimum inhibitory concentration (MIC), B. humptydooensis ATCC BAA-2767
[15] = system: P. aeruginosa CDC-0110; test: microbe, parasite or virus in culture; type: cell-based; conditions: Pseudomonas aeruginosa, CDC0110, read-out: Minimum inhibitory concentration, P. aeruginosa CDC-0110
[16] = ATCC49226, read-out: Minimum Inhibitory Concentration (MIC), N. gonorrhoeae ATCC 49226
[17] = read-out: Minimum Inhibitory Concentration (MIC), N. gonorrhoeae WHO G
[18] = read-out: Minimum Inhibitory Concentration (MIC), N. gonorrhoeae WHO X
[19] = CDC0197, read-out: Minimum Inhibitory Concentration (MIC), N. gonorrhoeae CDC-0197
[20] = ATCC49226, read-out: Minimum Inhibitory Concentration, ATCC 49226
[21] = read-out: Minimum Inhibitory Concentration, WHO G
[22] = read-out: Minimum Inhibitory Concentration, WHO X
[23] = CDC0197, read-out: Minimum Inhibitory Concentration, CDC-0197

T1 sequence (P0AD68 1-577): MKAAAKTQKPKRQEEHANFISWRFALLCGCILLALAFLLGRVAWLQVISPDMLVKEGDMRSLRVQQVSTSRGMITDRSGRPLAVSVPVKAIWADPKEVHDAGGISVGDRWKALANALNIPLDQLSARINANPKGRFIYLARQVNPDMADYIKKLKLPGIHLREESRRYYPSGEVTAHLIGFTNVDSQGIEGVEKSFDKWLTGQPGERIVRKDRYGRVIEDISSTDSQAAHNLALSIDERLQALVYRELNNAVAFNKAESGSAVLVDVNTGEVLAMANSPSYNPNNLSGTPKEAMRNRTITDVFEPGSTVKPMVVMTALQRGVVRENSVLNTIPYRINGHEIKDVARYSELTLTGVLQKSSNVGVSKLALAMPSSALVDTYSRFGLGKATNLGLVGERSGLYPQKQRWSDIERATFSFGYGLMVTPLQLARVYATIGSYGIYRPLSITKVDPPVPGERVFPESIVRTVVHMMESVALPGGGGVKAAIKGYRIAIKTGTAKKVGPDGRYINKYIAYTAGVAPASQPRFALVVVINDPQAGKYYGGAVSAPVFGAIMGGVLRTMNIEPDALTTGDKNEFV

Compound | EC50 [1] | IC50 [2] | MIC [3, 16] | MIC [4, 17] | MIC [5, 18] | MIC [6, 19] | MIC [7] | MIC [8] | MIC [9] | MIC [10] | MIC [11] | MIC [12] | MIC [13] | MIC [14] | MIC [15] | MIC [3, 20] | MIC [4, 21] | MIC [5, 22] | MIC [6, 23]
O=C(O)c1cccc2c1OB(O)[C@@H](NC(=O)[C@@H](NC(=O)c1cnc3n(c1=O)CCS3)c1ccc(P(=O)(O)O)cc1)C2 (single isomer, unassigned) [Example 196] | > 250 µM | 50 to 250 µM | 16 to 32 mg/L (≈ 26.7 to 53.3 µM) | 16 to 32 mg/L (≈ 26.7 to 53.3 µM) | 16 to 32 mg/L (≈ 26.7 to 53.3 µM) | 16 to 32 mg/L (≈ 26.7 to 53.3 µM) | – | – | – | – | – | – | – | – | – | – | – | – | –
O=C(O)c1cccc2c1OB(O)[C@@H](NC(=O)[C@H](NC(=O)c1cnc3n(c1=O)CCS3)c1ccc(P(=O)(O)O)cc1)C2 (single isomer, unassigned) [Example 197] | 10 to 50 µM | < 10 µM | 16 to 32 mg/L (≈ 26.7 to 53.3 µM) | 4 to 8 mg/L (≈ 6.66 to 13.3 µM) | 16 to 32 mg/L (≈ 26.7 to 53.3 µM) | 16 to 32 mg/L (≈ 26.7 to 53.3 µM) | – | – | – | – | – | – | – | – | – | – | – | – | –
CCN1CCN(C(=O)NC(C(=O)N[C@H]2Cc3cccc(C(=O)O)c3OB2O)c2ccc(P(=O)(O)O)c(F)c2O)C(=O)C1=O (stereo partly drawn) [Example 198, (3R)-3-(2-(4-ethyl-2,3-dioxopiperazine-1-carboxamido)-2-(3-fluoro-2-hydroxy-4-phosphonophenyl)acetamido)-2-hydroxy-3,4-dihydro-2H-benzo[e][1,2]oxaborinine-8-carboxylic acid] | 10 to 50 µM | 10 to 50 µM | < 1 mg/L | < 1 mg/L | 4 to 8 mg/L (≈ 6.43 to 12.9 µM) | < 1 mg/L | – | – | – | – | – | – | – | – | – | – | – | – | –
O=C(NCCN1CCN(C(=O)NC(C(=O)N[C@H]2Cc3ccc(F)c(C(=O)O)c3OB2O)c2cc(F)c(O)c(O)c2Cl)C(=O)C1=O)c1ccccc1 (stereo partly drawn) [Example 207, (3R)-3-(2-(4-(2-benzamidoethyl)-2,3-dioxopiperazine-1-carboxamido)-2-(2-chloro-5-fluoro-3,4-dihydroxyphenyl)acetamido)-7-fluoro-2-hydroxy-3,4-dihydro-2H-benzo[e][1,2]oxaborinine-8-carboxylic acid] | < 10 µM | – | 16 to 32 mg/L (≈ 21.9 to 43.8 µM) | 16 to 32 mg/L (≈ 21.9 to 43.8 µM) | > 64 mg/L | 16 to 32 mg/L (≈ 21.9 to 43.8 µM) | 2 to 4 mg/L (≈ 2.74 to 5.48 µM) | 2 to 4 mg/L (≈ 2.74 to 5.48 µM) | < 1 mg/L | 2 to 4 mg/L (≈ 2.74 to 5.48 µM) | 8 to 16 mg/L (≈ 11 to 21.9 µM) | 2 to 4 mg/L (≈ 2.74 to 5.48 µM) | 8 to 16 mg/L (≈ 11 to 21.9 µM) | < 1 mg/L | < 1 mg/L | – | – | – | –
CN(CCN1CCN(C(=O)N[C@@H](C(=O)N[C@H]2Cc3ccc(F)c(C(=O)O)c3OB2O)c2cc(F)c(O)c(O)c2Cl)C(=O)C1=O)Cc1cncc(O)c1 [Example 208, (R)-3-((R)-2-(2-chloro-5-fluoro-3,4-dihydroxyphenyl)-2-(4-(2-(((5-hydroxypyridin-3-yl)methyl)(methyl)amino)ethyl)-2,3-dioxopiperazine-1-carboxamido)acetamido)-7-fluoro-2-hydroxy-3,4-dihydro-2H-benzo[e][1,2]oxaborinine-8-carboxylic acid] | < 10 µM | – | 4 to 8 mg/L (≈ 5.36 to 10.7 µM) | 4 to 8 mg/L (≈ 5.36 to 10.7 µM) | > 64 mg/L | 16 to 32 mg/L (≈ 21.4 to 42.8 µM) | < 1 mg/L | 2 to 4 mg/L (≈ 2.68 to 5.36 µM) | < 1 mg/L | < 1 mg/L | 2 to 4 mg/L (≈ 2.68 to 5.36 µM) | < 1 mg/L | < 1 mg/L | < 1 mg/L | < 1 mg/L | – | – | – | –
CN(CCN1CCN(C(=O)N[C@@H](C(=O)N[C@H]2Cc3ccc(F)c(C(=O)O)c3OB2O)c2cc(F)c(O)c(O)c2Cl)C(=O)C1=O)Cc1ccc(N)nc1 [Example 209, (R)-3-((R)-2-(4-(2-(((6-aminopyridin-3-yl)methyl)(methyl)amino)ethyl)-2,3-dioxopiperazine-1-carboxamido)-2-(2-chloro-5-fluoro-3,4-dihydroxyphenyl)acetamido)-7-fluoro-2-hydroxy-3,4-dihydro-2H-benzo[e][1,2]oxaborinine-8-carboxylic acid] | < 10 µM | – | 4 to 8 mg/L (≈ 5.36 to 10.7 µM) | 4 to 8 mg/L (≈ 5.36 to 10.7 µM) | > 64 mg/L | 16 to 32 mg/L (≈ 21.5 to 42.9 µM) | < 1 mg/L | 2 to 4 mg/L (≈ 2.68 to 5.36 µM) | < 1 mg/L | < 1 mg/L | 2 to 4 mg/L (≈ 2.68 to 5.36 µM) | < 1 mg/L | < 1 mg/L | < 1 mg/L | < 1 mg/L | – | – | – | –
O=C(O)c1c(F)ccc2c1OB(O)[C@@H](NC(=O)[C@H](NC(=O)N1CCN(CCNC(=O)[C@@H]3CCCN3)C(=O)C1=O)c1cc(F)c(O)c(O)c1Cl)C2 [Example 229, (R)-3-((R)-2-(2-chloro-5-fluoro-3,4-dihydroxyphenyl)-2-(2,3-dioxo-4-(2-((S)-pyrrolidine-2-carboxamido)ethyl)piperazine-1-carboxamido)acetamido)-7-fluoro-2-hydroxy-3,4-dihydro-2H-benzo[e][1,2]oxaborinine-8-carboxylic acid] | 10 to 50 µM | < 10 µM | 16 to 32 mg/L (≈ 22.1 to 44.3 µM) | 4 to 8 mg/L (≈ 5.53 to 11.1 µM) | > 64 mg/L | 16 to 32 mg/L (≈ 22.1 to 44.3 µM) | < 1 mg/L | 2 to 4 mg/L (≈ 2.77 to 5.53 µM) | 2 to 4 mg/L (≈ 2.77 to 5.53 µM) | < 1 mg/L | 8 to 16 mg/L (≈ 11.1 to 22.1 µM) | < 1 mg/L | < 1 mg/L | – | 2 to 4 mg/L (≈ 2.77 to 5.53 µM) | – | – | – | –
O=C(CN1CCN(C(=O)NC(C(=O)N[C@H]2Cc3ccc(F)c(C(=O)O)c3OB2O)c2cc(F)c(O)c(O)c2Cl)C(=O)C1=O)NCc1ccc(O)cc1 (stereo partly drawn) [Example 236, (3R)-3-(2-(2-chloro-5-fluoro-3,4-dihydroxyphenyl)-2-(4-(2-((4-hydroxybenzyl)amino)-2-oxoethyl)-2,3-dioxopiperazine-1-carboxamido)acetamido)-7-fluoro-2-hydroxy-3,4-dihydro-2H-benzo[e][1,2]oxaborinine-8-carboxylic acid] | < 10 µM | < 10 µM | – | – | – | – | – | – | – | – | 8 to 16 mg/L (≈ 10.7 to 21.5 µM) | > 128 mg/L | 8 to 16 mg/L (≈ 10.7 to 21.5 µM) | 2 to 4 mg/L (≈ 2.68 to 5.36 µM) | – | – | – | – | –
O=C(NCCCN1CCN(C(=O)N[C@@H](C(=O)N[C@H]2Cc3ccc(F)c(C(=O)O)c3OB2O)c2cc(F)c(O)c(O)c2Cl)C1=O)c1ccccc1 [Example 253, (R)-3-((R)-2-(3-(3-benzamidopropyl)-2-oxoimidazolidine-1-carboxamido)-2-(2-chloro-5-fluoro-3,4-dihydroxyphenyl)acetamido)-7-fluoro-2-hydroxy-3,4-dihydro-2H-benzo[e][1,2]oxaborinine-8-carboxylic acid] | < 10 µM | < 10 µM | – | – | – | – | 2 to 4 mg/L (≈ 2.79 to 5.59 µM) | 8 to 16 mg/L (≈ 11.2 to 22.4 µM) | 2 to 4 mg/L (≈ 2.79 to 5.59 µM) | 2 to 4 mg/L (≈ 2.79 to 5.59 µM) | < 1 mg/L | < 1 mg/L | 2 to 4 mg/L (≈ 2.79 to 5.59 µM) | – | 2 to 4 mg/L (≈ 2.79 to 5.59 µM) | 16 to 32 mg/L (≈ 22.4 to 44.7 µM) | 16 to 32 mg/L (≈ 22.4 to 44.7 µM) | > 64 mg/L | > 64 mg/L
O=C(NCCS(=O)(=O)N1CCN(C(=O)NC(C(=O)N[C@H]2Cc3ccc(F)c(C(=O)O)c3OB2O)c2cc(F)c(O)c(O)c2Cl)C1=O)c1ccccc1 (stereo partly drawn) [Example 260, (3R)-3-(2-(3-((2-benzamidoethyl)sulfonyl)-2-oxoimidazolidine-1-carboxamido)-2-(2-chloro-5-fluoro-3,4-dihydroxyphenyl)acetamido)-7-fluoro-2-hydroxy-3,4-dihydro-2H-benzo[e][1,2]oxaborinine-8-carboxylic acid] | < 10 µM | < 10 µM | – | – | – | – | 2 to 4 mg/L (≈ 2.61 to 5.22 µM) | 2 to 4 mg/L (≈ 2.61 to 5.22 µM) | 2 to 4 mg/L (≈ 2.61 to 5.22 µM) | 2 to 4 mg/L (≈ 2.61 to 5.22 µM) | 2 to 4 mg/L (≈ 2.61 to 5.22 µM) | < 1 mg/L | > 128 mg/L | – | 2 to 4 mg/L (≈ 2.61 to 5.22 µM) | 16 to 32 mg/L (≈ 20.9 to 41.8 µM) | 16 to 32 mg/L (≈ 20.9 to 41.8 µM) | > 64 mg/L | 16 to 32 mg/L (≈ 20.9 to 41.8 µM)

From US20240270762A1, “PENICILLIN-BINDING PROTEIN INHIBITORS” (priority 2021, published 2024)
